The source of these data is patent US20260272906A1, “PERIPHERALLY RESTRICTED LPAR1 ANTAGONISTS AND USES THEREOF” (CONTINEUM THERAPEUTICS, INC., priority 2024, published 2026).

pIC50: −log10 of the molar value.

The target of one series is human LPA1 (Homo sapiens, UniProt Q92633). As to the kind of experiment: In vitro functional assay of lysophosphatidic acid receptor 1 activity (calcium flux, Fluo-4 NW, LPA 18:1 at EC80). Format: cell-based. The following applies: B103 cells stably expressing human LPA1. On the procedure:
Primary compound plates were prepared in 100% DMSO (Sigma-Aldrich), secondary compound plates were prepared at 10× concentration in DMEM (Invitrogen), and tertiary compound plates were prepared at 3× concentration in assay buffer containing HBSS (no Ca^+2/Mg^+2, Invitrogen) and 0.1% BSA (Sigma-Aldrich). Fluo-4 NW calcium assay dye (Invitrogen) was prepared as per manufacturer's recommendations in assay buffer. B103 cells stably expressing human LPA1 (J. Chun lab, UCSD) were grown to confluency in DMEM media (Invitrogen) containing 10% FBS (ATCC), 10% Penicillin-Streptomycin (Sigma-Aldrich) and 50 μg Geneticin (Sigma-Aldrich), and detached with Accutase (Sigma-Aldrich) prior to assay. The freshly detached cells were resuspended in growth media and plated in black, clear-bottom 96-well plates (Costar) containing compound (i.e., secondary compound plate) at a density of 5×10^4 cells/well. Once plated, cells were left at room temperature for 30 minutes and then transferred to a 37° C., 5% CO2 incubator for 24 hours. […] Finally, lysophosphatidic acid (18:1) at the EC80 concentration was added and calcium flux measured using FlexStation 3 (Molecular Devices). Sigmoidal dose-response curves were generated by measuring […] over 45 sec and calculating the area under the curve. […]
Background: Calcium flux is commonly read through the fluorescence of an indicator in the cells.

Series [1] in a line: Rat PK: brain penetration after PO dosing. It is filed as in vivo. The settings on record: 10 mg/kg, Rat PK: Dosing PO @ 10 mpk; for Kp uu: read-out: Kp,uu (unbound brain-to-plasma partitioning).

Chain of human LPA1 (Q92633 whole entry): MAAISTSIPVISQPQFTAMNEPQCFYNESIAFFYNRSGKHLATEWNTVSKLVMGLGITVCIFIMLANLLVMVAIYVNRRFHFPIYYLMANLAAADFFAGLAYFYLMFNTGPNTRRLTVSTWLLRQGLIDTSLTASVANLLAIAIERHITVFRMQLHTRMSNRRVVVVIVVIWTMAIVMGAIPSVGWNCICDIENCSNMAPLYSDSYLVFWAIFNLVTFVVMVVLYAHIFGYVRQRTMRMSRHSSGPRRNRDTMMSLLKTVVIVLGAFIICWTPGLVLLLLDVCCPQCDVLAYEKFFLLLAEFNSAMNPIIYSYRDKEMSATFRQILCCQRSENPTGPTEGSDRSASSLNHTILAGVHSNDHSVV

In the case of `COc1ccc(NC(=O)N(c2cnccc2C(C)C)[C@H]2CC[C@H](C(=O)O)CC2)c(OC(F)F)n1` [Example 1, trans-4-(3-(2-(difluoromethoxy)-6-methoxypyridin-3-yl)-1-(4-isopropylpyridin-3-yl)ureido)cyclohexane-1-carboxylic acid], the pIC50 (commonly −log10 of the IC50, conventionally taken in molar units) at human LPA1 is 7.00 to 8.00. Further, in series [1], the concentration at 2 h is 290 nM and the Kp uu is 0.05.

For `COc1ccc(NC(=O)N(c2ncccc2C(C)C)[C@H]2CC[C@H](C(=O)O)CC2)c(OC(F)F)n1` [Example 2, trans-4-(3-(2-(difluoromethoxy)-6-methoxypyridin-3-yl)-1-(3-isopropylpyridin-2-yl)ureido)cyclohexane-1-carboxylic acid], at human LPA1, the pIC50 is 7.00 to 8.00. For the same compound, in series [1], the concentration at 2 h turned out to be 2100 nM and the Kp uu came out at 0.15.
